Test results taken from patent US10682371B2, “Small molecule conjugates specifically activated in tumor microenvironment for targeting and use thereof” (priority 2014, dated 2020).

How the values were obtained:
[1] = tested on: Human chronic leukemia K562; experiment: Multiple tumor models in nude mice: K562; type: in vivo
Protocol: (§1) 1) Corresponding tumor cells were purchased from American type culture collection (ATCC) and identified according the specification provided by ATCC. Cells were cultivated in DMEM culture solution containing 10% fetal bovine serum at 37° C. and 5% CO2. The cells were passaged for every three days and cells within the 15th passage were used.
(§2) 2) Production of tumor. 5×10^6 corresponding cells were subcutaneously injected to the back of the nude mice. Mice were randomly grouped after the tumor reached at least 100 mm^3. Then treatment began and the day on which the treatment began was day 1.
(§3) 3) Course of treatment. […] The control group was administered by physiological saline. Animals were administered once weekly for three weeks.
(§4) 3) Course of treatment. According to the clinical application of A1, A1 was administered in a dose of ⅙ MTD, i.v., 17.6 μmol/kg. The control group was administered by physiological saline. Animals were administered once weekly for three weeks.
(§5) 3) Course of treatment. According to the clinical application of B1, B1 was administered in a dose of ⅙ MTD, i.v., 17.6 μmol/kg. The control group was administered by physiological saline. Animals were administered once weekly for three weeks.
as §3, §3

[2] = tested on: Human pancreatic cancer Panc-1; experiment: Multiple tumor models in nude mice: Panc-1; type: in vivo
Protocol: as §1, §2, §3, §4, §5, §3, §3

Human colon cancer HT-29 = experiment: Multiple tumor models in nude mice: HT-29; type: in vivo
Protocol: as §1, §2, §3, §4, §5, §3, §3

[3] = tested on: Human renal cancer OS-RC-2; experiment: Multiple tumor models in nude mice: OS-RC-2; type: in vivo
Protocol: as §1, §2, §3, §4, §5, §3, §3

[4] = tested on: Human breast cancer MDA-MB231 cells; type: in vivo, nude mice; conditions: for Effect on tumor growth, in words: compared to control, camptothecin, capecitabine and daunorubicin groups
Protocol: as §1, with “Human breast cancer MDA-MB231” for “Corresponding tumor”, “[…] (DMEM” for “DMEM”, “medium)” for “solution”
2) Production of tumor. 5×10^6 MDA-MB231 cells were subcutaneously injected to the back of the nude mice. Mice were randomly grouped after the tumor reached at least 100 mm^3. Then treatment began and the day on which the treatment began was day 1.
3) Course of treatment. […] The drugs were administered once weekly for four weeks.
When R1 is 2-(2-Methoxyethoxy)Acetyl, and R3 is Ala, activation study and efficacy study were carried out by using compounds having different cleavable linker. The study methods are identical to those in Examples 10, 11 and 12. The in vitro activation efficiency was tested by asparagine endopeptidase and the tumor inhibition rate was tested by using human breast cancer MDA-MB231 model. […]

HEK293 cells = type: cell-based; conditions: for Cytoxicity reduced (Multiple): HEK293, 72 hours, MTT, IC50 of modified compound compared to its corresponding cytotoxic compound, approximate multiples
Protocol: Toxicity detection method: a standard universal test program was used to perform the in vitro cytotoxicity test. 2500 HEK293 cells were cultured in a 96-well plate, and allowed to grow overnight. Cytotoxic compounds and their corresponding conjugated compounds were added into each well in different concentrations, cultivated with the cells at 37° C. for 72 hours, and then treated with MTT reagents. OD changes were read. The approximate multiples of the toxicity change were obtained by comparing the IC50 of the modified compounds to their corresponding cytotoxic compounds.

macrophage = experiment: Macrophage precursor antigen (F4/80) positive cells in CD45 positive cells of scar/CNV tissue, flow cytometry; type: in vivo, C57 mice; conditions: 50 mW laser, 48 hours after treatment
Protocol: (§6) Production and treatment of scar. […] Two weeks later, eye tissues were taken from 4 animals of each group for immunohistochemical (HE) staining. For another 4 animals, they were subjected to fixed irradiation through photocoagulation by 50 mW laser and then to treatment. 48 hours later, their eye tissues were taken, homogenated, filtered to isolate individual cells in the scar and choroidal neovascularization (CNV) tissues. The cells were washed by buffer twice and stained by biotin-conjugated anti-F4/80 (biotin-labeled precursor cell antigen from macrophage) and FITC-conjugated anti-CD45 (isothiocyanate fluorescein labeled leucocyte common antigen) at ambient temperature for 1 hour. Then the cells were washed by PBS containing 1% fetal bovine serum twice and then analyzed for the ratio of the macrophage precursor antigen positive cells in the leucocyte common antigen (CD45) positive cells by flow cytometry.

HT1080 cells = experiment: Tumor treatment in nude mice, HT1080 model (Example 61); type: in vivo; conditions: for Size of tumor (mm^3) Day 13 / inhibitory rate on tumor Day 13 / Size of tumor (mm^3) Day 26 / inhibitory rate on tumor (Day 26): HT1080 in nude mice, IV once weekly for four weeks, E1-E4 15 mg/kg, mitomycin 2 mg/kg
Protocol: as §1, with “HT1080” for “Corresponding tumor”
2) Production of tumor. 5×10^6 HT1080 cells were subcutaneously injected to the back of the nude mice. Mice were randomly grouped after the tumor reached at least 100 mm^3. Then treatment began and the day on which the treatment began was day 1.
(§7) […]. The control group was administered by physiological saline. Drugs were administered once weekly for four weeks.

Panc-1 cells = experiment: Tumor treatment in nude mice, Panc-1 model (Example 60); type: in vivo; conditions: for Size of tumor (mm^3) Day 10 / inhibitory rate on tumor Day 10 / Size of tumor (mm^3) Day 24 / inhibitory rate on tumor Day 24: Panc-1 in nude mice, IV once weekly for four weeks, E1-E4 15 mg/kg, mitomycin 2 mg/kg
Protocol: as §1, with “Panc-1” for “Corresponding tumor”
2) Production of tumor. 5×10^6Panc-1 cells were subcutaneously injected to the back of the nude mice. Mice were randomly grouped after the tumor reached at least 100 mm^3. Then treatment began and the day on which the treatment began was day 1.
as §7

[5] = tested on: scar and choroidal neovascularization (CNV); experiment: Inhibition of scar and choroidal neovascularization (CNV) by eye drops after laser photocoagulation; type: in vivo, C57 mice; conditions: for Maximal scar radius observed by pathological staining (pixel): 150 mW laser photocoagulation, eye drops daily, two weeks, C57 mice
Protocol: Animal: C57 mice of 16 weeks old, all female and 8 animals in each group.
as §6

[6] = Table 29, i.v. 17.6 μmol/kg once weekly for three weeks
[7] = MDA-MB231, nude mice, IV 13.2 μmol/kg once weekly for four weeks, Day 10
[8] = MDA-MB231, nude mice, IV 13.2 μmol/kg once weekly for four weeks, Day 24
[9] = S1′ i.v. 17.6 μmol/kg once weekly for three weeks

COCCOCC(=O)NCCCC[C@H](NC(=O)COCCOC)C(=O)N[C@H](C)C(=O)N[C@H](C)C(=O)N[C@H](CC(N)=O)C(=O)Nc1ccc(COC(=O)OC(C(=O)OC2C[C@@]3(O)[C@@H](OC(=O)c4ccccc4)[C@H]4[C@](C)(C(=O)[C@H](OC(C)=O)C(=C2C)C3(C)C)[C@@H](O)CC2OC[C@]24OC(C)=O)[C@@H](NC(=O)c2ccccc2)c2ccccc2)cc1 (stereo partly shown) [Compound A1]
inhibitory rate on tumor (Day 26) [1, 6]: 76.9% | inhibitory rate on tumor (Day 26) [2, 6]: 89.2% | inhibitory rate on tumor (Day 26) (Human colon cancer HT-29; [6]): 87.5% | inhibitory rate on tumor (Day 26) [3, 6]: 86.6%

COc1cccc2c1C(=O)c1c(O)c3c(c(O)c1C2=O)C[C@@](O)(C(C)=O)C[C@@H]3O[C@H]1C[C@H](NC(=O)OCc2ccc(NC(=O)[C@H](CC(N)=O)NC(=O)[C@H](C)NC(=O)[C@H](C)NC(=O)CCCCCN3C(=O)C=CC3=O)cc2)[C@H](O)[C@H](C)O1 [Compound S5, 4-N—(N—(N—(N-(6-maleimidocaproyl)-L-alanyl)-L-alanyl)-L-asparaginyl)-amino benzyl alcohol-daunorubicin-carbamate]
Size of tumor (mm^3) Day 10 [4, 7]: 63.67 ± 46.64 mm^3 | Size of tumor (mm^3) Day 24 [4, 8]: 46.45 ± 19.43 mm^3 | Effect on tumor growth, in words [4]: strong inhibitory effect on tumor growth | Cytoxicity reduced (Multiple) (HEK293 cells): 125 Multiple

CCCCCOC(=O)Nc1nc(=O)n([C@@H]2O[C@H](C)[C@@H](OC(=O)OCc3ccc(NC(=O)[C@H](CC(N)=O)NC(=O)[C@H](C)NC(=O)[C@H](C)NC(=O)CCCCCCC(=O)NO)cc3)[C@H]2O)cc1F [Compound S3, 4-N—(N—(N—(N-(8-(N-hydroxylamino)-1,8-octandioic acid-1-monoacyl)-L-alanyl)-L-alanyl)-L-asparaginyl)-amino benzyl alcohol-capecitabine-carbonic acid diester]
Size of tumor (mm^3) Day 10 [4, 7]: 85.67 ± 36.42 mm^3 | Size of tumor (mm^3) Day 24 [4, 8]: 0 mm^3 | Effect on tumor growth, in words [4]: strong inhibitory effect on tumor growth | Cytoxicity reduced (Multiple) (HEK293 cells): 78 Multiple

COCCOCC(=O)N[C@H](C)C(=O)N[C@H](C)C(=O)N[C@H](CC(N)=O)C(=O)Nc1ccc(COC(=O)OC(C(=O)OC2C[C@@]3(O)C(OC(=O)c4ccccc4)[C@@H]4C5(OC(C)=O)COC5C[C@H](O)[C@@]4(C)C(=O)[C@H](OC(C)=O)C(=C2C)C3(C)C)[C@@H](NC(=O)c2ccccc2)c2ccccc2)cc1 (stereo in doubt) [S1′, 2-(2-methoxyethoxy) acetylamino-L-Ala-L-Ala-L-Asn-p-amino-benzyl-paclitaxel]
inhibitory rate on tumor (Day 26) [1, 9]: 77.9% | inhibitory rate on tumor (Day 26) [2, 9]: 88.59% | inhibitory rate on tumor (Day 26) (Human colon cancer HT-29; [9]): 89.7% | inhibitory rate on tumor (Day 26) [3, 9]: 85.7%

CO[C@@]12[C@H](COC(N)=O)C3=C(C(=O)C(C)=C(N)C3=O)N1C[C@@H]1N[C@@H]12 [mitomycin, reference compound]
F4/80+ cells among CD45+ cells (%) (macrophage): 14.6 ± 2.4% | Size of tumor (mm^3) Day 13 (HT1080 cells): 876.48 ± 78.29 mm^3 | inhibitory rate on tumor Day 13 (HT1080 cells): 3.7% | Size of tumor (mm^3) Day 26 (HT1080 cells): 1410.28 ± 375.46 mm^3 | inhibitory rate on tumor (Day 26) (HT1080 cells): 10.4% | Size of tumor (mm^3) Day 10 (Panc-1 cells): 118.85 ± 36.47 mm^3 | inhibitory rate on tumor Day 10 (Panc-1 cells): 7.5% | Size of tumor (mm^3) Day 24 (Panc-1 cells): 249.54 ± 95.46 mm^3 | inhibitory rate on tumor Day 24 (Panc-1 cells): 27.9% | Maximal scar radius observed by pathological staining (pixel) [5]: 953 ± 249 pixel

COCCOCCOCCOCCOCCOCC(=O)N[C@H](C)C(=O)N[C@H](C)C(=O)N[C@H](CC(N)=O)C(=O)Nc1ccc(COC(=O)N2[C@H]3[C@@H]2CN2C4=C(C(=O)C(N)=C(C)C4=O)[C@H](COC(N)=O)[C@]32OC)cc1 [Compound E2]
F4/80+ cells among CD45+ cells (%) (macrophage): 7.7 ± 1.7% | Size of tumor (mm^3) Day 13 (HT1080 cells): 378.11 ± 68.46 mm^3 | inhibitory rate on tumor Day 13 (HT1080 cells): 58.5% | Size of tumor (mm^3) Day 26 (HT1080 cells): 137.60 ± 156.42 mm^3 | inhibitory rate on tumor (Day 26) (HT1080 cells): 91.3% | Inhibition on tumor growth, in words (HT1080 cells; HT1080, compared with mitomycin group and control group): greatly improved | Size of tumor (mm^3) Day 10 (Panc-1 cells): 60.17 ± 30.26 mm^3 | inhibitory rate on tumor Day 10 (Panc-1 cells): 36.4% | Size of tumor (mm^3) Day 24 (Panc-1 cells): 42.39 ± 62.24 mm^3 | inhibitory rate on tumor Day 24 (Panc-1 cells): 83.01% | Inhibition on tumor growth, in words (Panc-1 cells; Panc-1, compared with mitomycin group and control group): greatly improved | Maximal scar radius observed by pathological staining (pixel) [5]: 348 ± 146 pixel | Treatment effect on scar radius and inhibition of macrophage, in words ([5]; eye drops, compared to the control group and the mitomycin group): greatly improved treatment effect on scar radius and inhibition of macrophage

4-N—(N—(N—(N-(6-maleimido caproyl)-L-alanyl)-L-alanyl)-L-asparaginyl)-amino benzyl alcohol-MMAE-carbamate [Compound S6]
Inhibitory rate on tumor (%) Day 10 [4, 7]: 23% | Size of tumor (mm^3) Day 10 [4, 7]: 235.5 ± 56.3 mm^3 | Inhibitory rate on tumor (%) Day 24 [4, 8]: 45.3% | Effect on tumor growth, in words [4]: less efficacy | tumor inhibition rate (%) ([4]; human breast cancer MDA-MB231 model, different cleavable linkers): 45.4% | Cytoxicity reduced (Multiple) (HEK293 cells): 35 Multiple | Cytoxicity reduced (Multiples) (HEK293 cells; different cleavable linkers of MMAE and Doxorubicin): 35 Multiples
